ChEMBL document CHEMBL1147276, “Novel Acetylenic Acids from the Root Bark of Paramacrolobium caeruleum: Inhibitors of 3-Hydroxy-3-methyl-glutaryl Coenzyme A Reductase” (J Nat Prod, 1989)

The compounds below were run against T1, 3-hydroxy-3-methylglutaryl-coenzyme A reductase (Homo sapiens, UniProt P04035) (assay: Inhibition of human HMGCoA reductase). Conditions: not given; call rule not given here.
T1 sequence (P04035 whole entry): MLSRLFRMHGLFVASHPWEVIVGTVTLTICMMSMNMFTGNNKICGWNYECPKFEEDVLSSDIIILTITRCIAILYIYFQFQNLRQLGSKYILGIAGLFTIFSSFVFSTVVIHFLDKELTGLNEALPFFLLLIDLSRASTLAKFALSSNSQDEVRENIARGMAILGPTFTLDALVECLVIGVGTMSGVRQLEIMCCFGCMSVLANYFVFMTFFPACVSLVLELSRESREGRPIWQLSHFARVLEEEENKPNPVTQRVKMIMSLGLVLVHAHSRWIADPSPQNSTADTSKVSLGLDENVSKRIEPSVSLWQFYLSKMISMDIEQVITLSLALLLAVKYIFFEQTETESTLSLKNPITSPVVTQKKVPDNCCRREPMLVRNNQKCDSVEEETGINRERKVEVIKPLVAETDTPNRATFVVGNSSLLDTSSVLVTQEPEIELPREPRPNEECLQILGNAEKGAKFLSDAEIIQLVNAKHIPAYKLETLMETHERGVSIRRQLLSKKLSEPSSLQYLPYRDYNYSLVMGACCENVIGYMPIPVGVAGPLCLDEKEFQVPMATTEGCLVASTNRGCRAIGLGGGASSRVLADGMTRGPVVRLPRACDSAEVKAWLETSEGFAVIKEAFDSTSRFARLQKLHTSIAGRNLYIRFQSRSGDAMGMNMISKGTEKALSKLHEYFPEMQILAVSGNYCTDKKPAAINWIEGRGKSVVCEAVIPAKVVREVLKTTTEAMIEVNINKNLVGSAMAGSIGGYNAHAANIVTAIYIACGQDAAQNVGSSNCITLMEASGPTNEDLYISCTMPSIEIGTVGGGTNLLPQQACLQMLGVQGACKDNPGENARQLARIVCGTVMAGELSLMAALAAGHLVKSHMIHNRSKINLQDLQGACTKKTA

Row | SMILES | IC50
1 | CCCCCCCC/C=C\CCCCCCCC(=O)O [OLEIC ACID] | Not Active
2 | CCCCCCCCCCCCCCCCCC(=O)O [STEARIC ACID] | Not Active

Same assay, conditions: read-out: IC50

Row | IC50 | SMILES
3 | 7 µM | CCCCCCCCC#CC#CC(O)CCCCC(=O)O (centres undefined)
4 | 5 µM | CCCCCCCCC#CCCCCCCCC(=O)O
5 | 5 µM | CCCCCCCCC#CC#CC1OC1CCCC(=O)O (centres undefined)
6 | 5 µM | CCCCCCCCC#CC#CCCCCCC(=O)O
7 | 0.5 µM | CCCCCCCCC#CC#C/C=C/CCCC(=O)O
8 | 3 µM | CCCCC#CC#CCCCCCC(=O)O
9 | 1.5 µM | CCCCCCCCC#CC#C/C=C\CCCC(=O)O
